Reference: patent US20100173990A1, “Transglutaminase Inhibitor Comprising Chlorogenic Acid And A Method For Producing Thereof” (priority 2007, published 2010)

Biological target: T1, Transglutaminase 2 (Cavia cutleri, UniProt P08587)
T1 construct: purchased Sigma-Aldrich T5398
T1 sequence (P08587 1-690): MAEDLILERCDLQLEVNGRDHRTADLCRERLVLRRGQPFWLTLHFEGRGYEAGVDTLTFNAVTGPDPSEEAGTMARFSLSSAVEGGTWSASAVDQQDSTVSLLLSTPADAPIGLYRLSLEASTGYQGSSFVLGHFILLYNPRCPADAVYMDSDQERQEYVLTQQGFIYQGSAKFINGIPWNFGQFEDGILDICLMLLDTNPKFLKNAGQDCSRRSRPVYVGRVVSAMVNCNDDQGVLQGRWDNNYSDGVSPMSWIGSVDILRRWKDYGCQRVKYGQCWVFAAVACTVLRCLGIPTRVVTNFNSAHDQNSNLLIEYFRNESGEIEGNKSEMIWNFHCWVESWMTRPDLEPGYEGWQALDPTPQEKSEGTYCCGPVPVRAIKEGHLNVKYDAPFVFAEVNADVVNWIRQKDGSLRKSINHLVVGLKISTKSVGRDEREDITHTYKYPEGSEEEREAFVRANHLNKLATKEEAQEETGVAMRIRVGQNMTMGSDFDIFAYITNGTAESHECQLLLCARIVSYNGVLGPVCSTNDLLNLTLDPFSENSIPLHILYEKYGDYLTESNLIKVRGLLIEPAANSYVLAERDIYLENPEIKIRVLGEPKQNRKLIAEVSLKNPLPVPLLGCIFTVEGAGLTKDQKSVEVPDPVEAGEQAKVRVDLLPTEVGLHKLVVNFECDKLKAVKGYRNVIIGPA
Assay: In vitro assay for inhibition of transglutaminase activity ([1,4-14C] putrescine incorporation into succinylated casein)
Assay type: biochemical
Conditions: for activity of transglutaminase relative to DMSO-control, Assay 1 / activity of transglutaminase relative to DMSO-control, Assay 2 / activity of transglutaminase relative to DMSO-control, Assay 3 / activity of transglutaminase relative to DMSO-control, Mean: control = 1.0000; for activity of transglutaminase relative to DMSO-control, Mean: mean of three assays
Protocol: To measure the inhibitory activity of chlorogenic acid which competes with putrescine, the transglutaminase-catalyzed reaction between [1,4,-^14C] putrescine and succinylated casein were observed.
Succinylated casein was purchased from Calbiochem (Cat. No. 573464), and 1 g of the powder was dissolved in 50 ml of a reaction buffer solution containing 5 mM DTT (0.1 M Tris-acetate (pH 8.0), 10 mM CaCl, 0.15 M NaCl, 1.0 mM EDTA). This solution was stored in a deep freezer for further use. [1,4-^14C] Putrescine dihydrochloride was purchased from GE Healthcare (Cat. No. CFA301), and the stock solution was diluted with distilled water to yield a radiological dose of 5 μCi/ml. Transglutaminase 2 was purchased from Sigma-Aldrich (Cat. No. T5398), and diluted with distilled water to yield a final concentration of 1 unit/ml. Chlorogenic acid (Sigma-Aldrich, Cat No. C3878) was dissolved in DMSO at a concentration of 10 mM to prepare its stock solution, and the stock solution was diluted with DMSO to prepare solutions having various concentrations.
450 μl of succinylated casein solution and 50 μl of [1,4-^14C] putrescine dihydrochloride solution were mixed together to prepare a substrate solution. 96 μl of the reaction buffer, 3 μl of the stock solution of chlorogenic acid, and 1 μl of the stock solution of transglutaminase were mixed together to prepare each sample, followed by incubation at 37° C. for 10 min. 500 μl of the substrate solution and 100 μl of sample solution were mixed well, and the mixture was incubated at 37° C. for 2 hrs, before termination with 4.5 ml of cold (4° C.) 7.5% TCA. The final solution was stored at 4° C. for 1 hr. The TCA-precipitates were filtered through a GF/glass fiber filter, washed with 25 ml of cold 5% TCA, and dried. Radioactivity of crosslinked protein was measured using a β-counter (Beckman Coulter), and compensated by the activity of DMSO-control group as a standard. The activity of transglutaminase was represented by the measured values.

O=C(/C=C/c1ccc(O)c(O)c1)O[C@@H]1C[C@](O)(C(=O)O)C[C@@H](O)[C@H]1O [chlorogenic acid, 3-[[3-(3,4-dihydroxyphenyl)-1-oxo-2-propenyl]oxy]-1,4,5-trihydroxycyclohexanecarboxylic acid]
activity of transglutaminase relative to DMSO-control, Assay 1 (0.5 μM chlorogenic acid): 0.9450
activity of transglutaminase relative to DMSO-control, Assay 2 (0.5 μM chlorogenic acid): 0.8658
activity of transglutaminase relative to DMSO-control, Assay 3 (0.5 μM chlorogenic acid): 0.9028
activity of transglutaminase relative to DMSO-control, Mean (0.5 μM chlorogenic acid): 0.9045
activity of transglutaminase relative to DMSO-control, Assay 1 (1.0 μM chlorogenic acid): 0.8294
activity of transglutaminase relative to DMSO-control, Assay 2 (1.0 μM chlorogenic acid): 0.7454
activity of transglutaminase relative to DMSO-control, Assay 3 (1.0 μM chlorogenic acid): 0.5411
activity of transglutaminase relative to DMSO-control, Mean (1.0 μM chlorogenic acid): 0.7053
activity of transglutaminase relative to DMSO-control, Assay 1 (2.0 μM chlorogenic acid): 0.4526
activity of transglutaminase relative to DMSO-control, Assay 2 (2.0 μM chlorogenic acid): 0.5111
activity of transglutaminase relative to DMSO-control, Assay 3 (2.0 μM chlorogenic acid): 0.3081
activity of transglutaminase relative to DMSO-control, Mean (2.0 μM chlorogenic acid): 0.4240
activity of transglutaminase relative to DMSO-control, Assay 1 (3.0 μM chlorogenic acid): 0.2041
activity of transglutaminase relative to DMSO-control, Assay 2 (3.0 μM chlorogenic acid): 0.1523
activity of transglutaminase relative to DMSO-control, Assay 3 (3.0 μM chlorogenic acid): 0.1209
activity of transglutaminase relative to DMSO-control, Mean (3.0 μM chlorogenic acid): 0.1591
activity of transglutaminase relative to DMSO-control, Assay 1 (5.0 μM chlorogenic acid): 0.1094
activity of transglutaminase relative to DMSO-control, Assay 2 (5.0 μM chlorogenic acid): 0.1009
activity of transglutaminase relative to DMSO-control, Assay 3 (5.0 μM chlorogenic acid): 0.0797
activity of transglutaminase relative to DMSO-control, Mean (5.0 μM chlorogenic acid): 0.0966
activity of transglutaminase relative to DMSO-control, Assay 1 (10.0 μM chlorogenic acid): 0.0713
activity of transglutaminase relative to DMSO-control, Assay 2 (10.0 μM chlorogenic acid): 0.0876
activity of transglutaminase relative to DMSO-control, Assay 3 (10.0 μM chlorogenic acid): 0.0754
activity of transglutaminase relative to DMSO-control, Mean (10.0 μM chlorogenic acid): 0.0781
activity of transglutaminase relative to DMSO-control, Assay 1 (50.0 μM chlorogenic acid): 0.0711
activity of transglutaminase relative to DMSO-control, Assay 2 (50.0 μM chlorogenic acid): 0.0808
activity of transglutaminase relative to DMSO-control, Assay 3 (50.0 μM chlorogenic acid): 0.0703
activity of transglutaminase relative to DMSO-control, Mean (50.0 μM chlorogenic acid): 0.0741
IC50 (calculated by nonlinear regression from mean values): 1490 nM
inhibition of the activity of transglutaminase (FIG. 1) (relative inhibition activities versus concentration): inhibited in a chlorogenic acid concentration-dependent manner
